Test results published in US11053219B2, “Substituted pyridines as TYK2 inhibitors” (FronThera U.S. Pharmaceuticals LLC, priority 2018, dated 2021).
Each block holds one compound with its values, some of them ahead of it.

Key:
TYK2 (JH2 domain) = TYK2 (JH2 domain) (Homo sapiens (Human), UniProt P29597); experiment: TYK2 JH2 domain binding assay (DiscoverX KINOMEscan); conditions: 11-point 3-fold dilution, duplicate
[1] = tested on: INFα induced pSTAT5 in human PBMC; experiment: INFα induced pSTAT5 in human PBMC; type: cell-based; conditions: human PBMC, INFα 5000 units/ml; read-out: p-STAT5 IC50
JAK1 (JH2 domain) = JAK1 (JH2 domain) (Homo sapiens (Human), UniProt P23458); experiment: JAK1 JH2 domain binding assay (KINOMEscan); conditions: KINOMEscan; read-out: JAK1 (JH2 domain) binding Kd
JAK2 (JH1 domain) = JAK2 (JH1 domain) (Homo sapiens (Human), UniProt O60674); experiment: JAK2 JH1 domain binding assay (KINOMEscan)
[2] = tested on: GM-CSF-induced pSTAT5 in human PBMC; experiment: GM-CSF-induced pSTAT5 in human PBMC; type: cell-based; conditions: GM-CSF 10 ng/ml
Protocol: (§1) Fresh Human PBMCs were resuspended in RPMI 1640 medium with 10% FBS. Cells were seeded in a round bottom 96-well plate at the concentration of 200,000 cells/well. A 10-point dilution series of test compound (top dose 10 uM, 1:5 dilution) was added to the well using the liquid dispenser (Tecan D300e) and incubated for 1 hour at 37 C. Then human IL-12 recombinant protein (R&D Systems) was added to the well at the final concentration of 10 ng/ml and incubated for 15 minutes at 37 C. Cell lysates were prepared and analyzed by Phospho STAT4 (Tyr693) Kit (Meso Scale Discovery) following manufacturer's protocol.
(§2) For calculation of the inhibition rate, the relative pSTAT4 signal of each well=pSTAT4 signal of each well−the average pSTAT4 signal of baseline. The inhibition %=(the average pSTAT4 signal of IL-12 treatment wells−the relative of pSTAT4 signal in each compound containing well)/the average pSTAT4 signal of IL-12 treatment wells*100%
(§3) The curve was plotted as the inhibition % (y-axis) vs. compounds concentration (x-axis) and was fitted with log(inhibitor) vs. normalized response—Variable slope by GraphPad Prism7.0. Control is BMS-986165:
(§4) Similar to the method for IL-12 induced pSTAT4 in human PBMC described above, these assays were performed to check if test compounds have cross-activity to JAK1. JAK2 and JAK3 pathways in human PBMC. The procedure is as described with change of stimuli to 10 ng/ml of GM-CSF or 20 ng/ml of IL-2.

[3] = tested on: IL-2-induced pSTAT5 in human PBMC; experiment: IL-2-induced pSTAT5 in human PBMC; type: cell-based; conditions: IL-2 20 ng/ml
Protocol: as §1, §2, §3, §4

[4] = Pharmacokinetic study in Sprague Dawley rats; type: in vivo; conditions: rat, plasma; for Vd: read-out: Vdss
Protocol: (§5) The pharmacokinetics of test compounds were evaluated in male C57BL/6 mice, Sprague Dawley rats, Beagle dogs, and cynomolgus monkeys when administered via oral gavage and IV injection. The animals were fasted overnight before administration. Plasma samples were collected predose and at 0.5, 1, 3, 6, 9, 12, and 24 hours postdose. The samples were analyzed by LC/MS/MS and the concentration of test compound at each timepoint was determined by linear regression. Pharmacokinetic parameters were calculated from the plasma concentrations using Pheonix WinNonlin.

[5] = Pharmacokinetic study in Beagle dogs; type: in vivo; conditions: dog, plasma; for Vd: read-out: Vdss
Protocol: as §5

[6] = Pharmacokinetic study in cynomolgus monkeys; type: in vivo; conditions: cynomolgus monkey, plasma; for Vd: read-out: Vdss
Protocol: as §5

[7] = Pharmacokinetic study in C57BL/6 mice; type: in vivo; set-up: AUC: unit not given here
Protocol: as §5

[8] = Oral (5 mg/kg), read-out: C0 or Cmax (Cmax)
[9] = iv, I.V. (1 mg/kg), read-out: C0 or Cmax (C0)
[10] = Oral (2 mg/kg), read-out: C0 or Cmax (Cmax)
[11] = Oral (2 mg/kg), NA: no detectable
[12] = Oral (2 mg/kg), NA: no detectable, read-out: C0 or Cmax (Cmax)
[13] = male, mouse, plasma, Oral (10 mg/kg)
[14] = male, mouse, plasma, iv, I.V. (2 mg/kg)

Chain of JAK1 (JH2 domain) (P23458 583-855): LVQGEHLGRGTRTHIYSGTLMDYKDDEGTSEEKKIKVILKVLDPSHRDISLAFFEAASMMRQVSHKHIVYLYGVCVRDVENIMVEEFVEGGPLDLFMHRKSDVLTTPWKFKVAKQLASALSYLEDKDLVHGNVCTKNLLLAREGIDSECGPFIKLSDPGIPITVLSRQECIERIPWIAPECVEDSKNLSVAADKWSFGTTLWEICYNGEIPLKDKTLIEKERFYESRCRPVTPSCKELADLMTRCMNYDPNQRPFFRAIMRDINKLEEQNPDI
Chain of JAK2 (JH1 domain) (O60674 849-1124): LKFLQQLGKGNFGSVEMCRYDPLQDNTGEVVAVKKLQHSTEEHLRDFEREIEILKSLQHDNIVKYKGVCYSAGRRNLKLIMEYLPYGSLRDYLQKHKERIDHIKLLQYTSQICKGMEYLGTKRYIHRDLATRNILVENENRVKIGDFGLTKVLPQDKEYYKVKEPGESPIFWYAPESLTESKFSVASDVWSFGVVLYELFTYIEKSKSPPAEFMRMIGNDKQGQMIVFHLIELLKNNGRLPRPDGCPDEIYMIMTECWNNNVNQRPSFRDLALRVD
Chain of TYK2 (JH2 domain) (P29597 589-875): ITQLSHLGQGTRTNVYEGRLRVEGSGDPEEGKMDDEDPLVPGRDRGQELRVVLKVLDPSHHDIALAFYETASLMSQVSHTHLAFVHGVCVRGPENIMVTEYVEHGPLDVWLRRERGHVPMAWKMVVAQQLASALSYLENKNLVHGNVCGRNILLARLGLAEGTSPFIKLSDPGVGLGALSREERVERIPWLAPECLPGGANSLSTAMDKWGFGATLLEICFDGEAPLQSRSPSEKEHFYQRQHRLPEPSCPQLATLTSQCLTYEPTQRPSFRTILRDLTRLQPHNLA

Kd (TYK2 (JH2 domain)): ≤ 0.001 µM
Kd (JAK1 (JH2 domain)): < 0.1 µM
Kd (JAK2 (JH1 domain)): > 10 µM
AUC ([4]; Oral (5 mg/kg)): 1.19 ± 0.053 µg·h/mL
Tmax ([4]; Oral (5 mg/kg)): 1 ± 0.87 h
bioavailability ([4]; Oral (5 mg/kg)): 16.9 ± 0.76%
half-life ([4]; Oral (5 mg/kg)): 2.85 ± 2.8 h
Cmax [4, 8]: 0.261 ± 0.035 µg/mL
AUC ([4]; iv, I.V. (1 mg/kg)): 1.41 ± 0.029 µg·h/mL
clearance ([4]; iv, I.V. (1 mg/kg)): 0.708 ± 0.0132 L/h/kg
half-life ([4]; iv, I.V. (1 mg/kg)): 1.22 ± 0.12 h
Cmax [4, 9]: 1.2 ± 0.07 µg/mL
Vd ([4]; iv, I.V. (1 mg/kg)): 1.1 ± 0.065 L/kg
AUC ([5]; Oral (2 mg/kg)): 0.253 ± 0.048 µg·h/mL
Tmax ([5]; Oral (2 mg/kg)): 1.67 ± 0.58 h
bioavailability ([5]; Oral (2 mg/kg)): 54 ± 10%
half-life ([5]; Oral (2 mg/kg)): 1.42 ± 0.24 h
Cmax [5, 10]: 0.0688 ± 0.018 µg/mL
AUC ([5]; iv, I.V. (1 mg/kg)): 0.234 ± 0.094 µg·h/mL
clearance ([5]; iv, I.V. (1 mg/kg)): 4.12 ± 1.68 L/h/kg
half-life ([5]; iv, I.V. (1 mg/kg)): 4.29 ± 1.25 h
Cmax [5, 9]: 0.182 ± 0.0476 µg/mL
Vd ([5]; iv, I.V. (1 mg/kg)): 23.1 ± 4.59 L/kg
AUC [6, 11]: 1.23 ± 0.435 µg·h/mL
Tmax [6, 11]: 4 h
bioavailability [6, 11]: 59.4 ± 21.1%
half-life [6, 11]: 1.28 ± 0.18 h
Cmax [6, 12]: 0.246 ± 0.124 µg/mL
AUC ([6]; iv, I.V. (1 mg/kg)): 1.03 ± 0.159 µg·h/mL
clearance ([6]; iv, I.V. (1 mg/kg)): 0.966 ± 0.144 L/h/kg
half-life ([6]; iv, I.V. (1 mg/kg)): 1.45 ± 0.22 h
Cmax [6, 9]: 0.667 ± 0.082 µg/mL
Vd ([6]; iv, I.V. (1 mg/kg)): 1.94 ± 0.03 L/kg
Structure (SMILES): [2H]C([2H])([2H])CC(=O)c1cnc(Nc2cccc(C#N)n2)cc1Nc1cccc(-c2ncn(C([2H])([2H])[2H])n2)c1OC [Example 198]
IC50 [1]: < 0.1 µM
IC50 [2]: 1 to 10 µM
IC50 [3]: 0.1 to 1 µM

Structure (SMILES): [2H]C([2H])([2H])CC(=O)c1cnc(NC(=O)C2CC2)cc1Nc1nccc(-c2ncn(C([2H])([2H])[2H])n2)c1OC [Example 200]
Kd (TYK2 (JH2 domain)): ≤ 0.001 µM
IC50 [1]: < 0.1 µM
Kd (JAK1 (JH2 domain)): < 0.1 µM
Kd (JAK2 (JH1 domain)): 1 to 10 µM
IC50 [2]: > 10 µM
IC50 [3]: 1 to 10 µM
AUC ([7]; I.V. (2 mg/kg)): 4475
AUC ([7]; Oral (10 mg/kg)): 19295
Tmax [7, 13]: 0.25 h
bioavailability [7, 13]: 85.1%
half-life [7, 13]: 2.01 h
Cmax ([7]; male, mouse, plasma, Oral (10 mg/kg), read-out: C0 or Cmax (Cmax)): 4.19 µg/mL
clearance [7, 14]: 0.441 L/h/kg
half-life [7, 14]: 4.62 h
Cmax ([7]; male, mouse, plasma, iv, I.V. (2 mg/kg), read-out: C0 or Cmax (C0)): 2.39 µg/mL
Vd ([7]; male, mouse, plasma, iv, I.V. (2 mg/kg), read-out: Vdss): 1.5 L/kg
AUC ([4]; Oral (5 mg/kg)): 3.66 ± 0.684 µg·h/mL
Tmax ([4]; Oral (5 mg/kg)): 1 h
bioavailability ([4]; Oral (5 mg/kg)): 42.7 ± 8%
half-life ([4]; Oral (5 mg/kg)): 4.22 ± 3.6 h
Cmax [4, 8]: 0.948 ± 0.043 µg/mL
AUC ([4]; iv, I.V. (1 mg/kg)): 1.71 ± 0.019 µg·h/mL
clearance ([4]; iv, I.V. (1 mg/kg)): 0.5652 ± 0.00132 L/h/kg
half-life ([4]; iv, I.V. (1 mg/kg)): 1.58 ± 0.21 h
Cmax [4, 9]: 1.03 ± 0.047 µg/mL
Vd ([4]; iv, I.V. (1 mg/kg)): 1.24 ± 0.065 L/kg
AUC ([5]; Oral (2 mg/kg)): 2.62 ± 0.258 µg·h/mL
Tmax ([5]; Oral (2 mg/kg)): 1.33 h
bioavailability ([5]; Oral (2 mg/kg)): 82.9 ± 8.2%
half-life ([5]; Oral (2 mg/kg)): 8.51 ± 1.6 h
Cmax [5, 10]: 0.247 ± 0.017 µg/mL
AUC ([5]; iv, I.V. (0.5 mg/kg)): 0.79 ± 0.196 µg·h/mL
half-life ([5]; iv, I.V. (0.5 mg/kg)): 11.5 ± 1.6 h
Cmax ([5]; iv, I.V. (0.5 mg/kg), read-out: C0 or Cmax (C0)): 0.0297 ± 0.014 µg/mL
Vd ([5]; iv, I.V. (0.5 mg/kg)): 8.37 ± 1.39 L/kg
AUC [6, 11]: 4.06 ± 0.251 µg·h/mL
Tmax [6, 11]: 2 h
bioavailability [6, 11]: 27.7 ± 1.7%
half-life [6, 11]: 8.6 ± 0.73 h
Cmax [6, 12]: 0.384 ± 0.022 µg/mL
AUC ([6]; iv, I.V. (1 mg/kg)): 7.32 ± 0.202 µg·h/mL
clearance ([6]; iv, I.V. (1 mg/kg)): 0.112 ± 0.0126 L/h/kg
half-life ([6]; iv, I.V. (1 mg/kg)): 9.35 ± 1.57 h
Cmax [6, 9]: 0.677 ± 0.081 µg/mL
Vd ([6]; iv, I.V. (1 mg/kg)): 1.45 ± 0.18 L/kg
